Key:
[1] = biological target: T1, NTCP (recombinant His-tagged human NTCP; hNTCP) (Homo sapiens, UniProt Q14973); experiment: inhibition of FITC-preS1-myr binding to Huh7D-hNTCP cells, high-content imaging; format: cell-based; set-up: gene SLC10A1
T1 sequence (Q14973 1-349): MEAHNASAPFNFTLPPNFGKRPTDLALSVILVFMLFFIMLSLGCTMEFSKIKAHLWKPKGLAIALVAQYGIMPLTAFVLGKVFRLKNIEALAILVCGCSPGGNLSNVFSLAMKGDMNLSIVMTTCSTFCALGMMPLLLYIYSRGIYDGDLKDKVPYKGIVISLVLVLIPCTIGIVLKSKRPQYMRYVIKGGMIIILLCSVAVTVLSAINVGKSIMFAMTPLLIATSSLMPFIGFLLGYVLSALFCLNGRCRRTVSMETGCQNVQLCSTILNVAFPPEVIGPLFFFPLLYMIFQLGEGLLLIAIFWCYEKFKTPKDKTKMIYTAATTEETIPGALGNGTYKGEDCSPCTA
Text: inhibition of FITC-preS1-myr binding to Huh7D-hNTCP cells, high-content imaging on NTCP (recombinant His-tagged human NTCP; hNTCP) | inhibited the binding of FITC-preS1 to cells in a concentration-dependent manner with an IC50

[2] = biological target: T1, NTCP (recombinant His-tagged human NTCP; hNTCP); experiment: biolayer interferometry (Octet RED); format: binding; set-up: gene SLC10A1; full-length from pEnter-hNTCP, His-tag, expressed in and purified from HEK293T, biotinylated for Octet
[3] = biological target: T2, BSA (Bos taurus, UniProt P02769); experiment: biolayer interferometry (Octet RED); format: binding; conditions: negative control protein, biotinylated BSA on sensor; paper states no interaction; unreliable
T2 construct: gene ALB; commercial serum albumin, biotinylated, control protein
T2 sequence (P02769 25-607): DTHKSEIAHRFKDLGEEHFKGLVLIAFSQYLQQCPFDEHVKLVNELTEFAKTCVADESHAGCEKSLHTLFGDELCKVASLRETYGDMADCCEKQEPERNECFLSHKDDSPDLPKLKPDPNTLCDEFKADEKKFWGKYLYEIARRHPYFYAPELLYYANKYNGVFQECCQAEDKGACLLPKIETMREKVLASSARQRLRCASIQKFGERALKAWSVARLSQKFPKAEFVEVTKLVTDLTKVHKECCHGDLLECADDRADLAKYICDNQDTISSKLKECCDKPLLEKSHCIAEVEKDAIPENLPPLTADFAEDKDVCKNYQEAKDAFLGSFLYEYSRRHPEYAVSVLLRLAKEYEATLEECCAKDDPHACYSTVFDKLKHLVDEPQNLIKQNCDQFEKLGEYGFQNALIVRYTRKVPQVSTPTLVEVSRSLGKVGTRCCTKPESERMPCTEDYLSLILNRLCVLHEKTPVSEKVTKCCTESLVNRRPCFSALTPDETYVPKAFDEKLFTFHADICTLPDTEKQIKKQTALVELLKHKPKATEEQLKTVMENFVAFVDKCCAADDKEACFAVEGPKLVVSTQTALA

**Q.** For `Cc1cc(-c2ccc(/N=N/c3ccc4c(S(=O)(=O)O)cc(S(=O)(=O)O)c(N)c4c3O)c(C)c2)ccc1/N=N/c1ccc2c(S(=O)(=O)O)cc(S(=O)(=O)O)c(N)c2c1O` [Evans blue], which IC50 [1] is on record?
**A.** Its IC50 is roughly 5 µM.

**Q.** What about the Kd [2] of the same compound?
**A.** The Kd was 0.0882 µM.

**Q.** And the KD [3]?
**A.** Its KD is 468 µM.

Source: article PMC6868041, “Evans Blue Inhibits HBV Replication Through a Dual Antiviral Mechanism by Targeting Virus Binding and Capsid Assembly” (Frontiers in Microbiology, 2019)
